Measured values as given in patent publication US10945980B2, “Treatment for myopia” (The University of Newcastle, priority 2016, dated 2021).

Experiments:
Type in all cases: in vivo, guinea pig (Cavia porcellus)
nNOS = nNOS immunohistochemistry of retinal whole mounts 3 hours after intravitreal injection
Protocol: Two experimental protocols were used. In Experiment 1, young guinea pigs were randomly divided into three drug treatment groups: no injection (n=14), vehicle (n=14) and 0.2 mM L-arginine (n=16). Animals in the latter two groups received a daily 10 μl intravitreal injection in one eye at 7, 8 and 9 days of age (Table 2). […] The fellow eye was untreated. At 10 days of age, the −6D lens was removed, animals were cyclopleged and refractive error was measured in both eyes. In Experiment 2, sixteen guinea pigs received an intravitreal injection of either vehicle (n=8) or 0.2 mM L-arginine (n=8) into their untreated eye at 16 days of age (Table 2). Injections were made 1 hour after the beginning of their 12 hr light cycle. 3 hours after injection, light adapted animals were euthanized, and the injected eye removed and processed using immunohistochemistry.
To make the L-arginine (LA), 217.75 mg of LA (Sigma, A5006) was added to 10 ml of isotonic saline (Pfizer) to create 125 mM fresh stock each day. Hydrochloric acid was used to lower the stock to a pH of 7.4. The stock was diluted with isotonic saline to produce a final dose of 0.185 mM of LA (˜0.2 mM) at the level of the retina based on a vitreous volume of 125 μl and an injection volume of 10 μl. Vehicle injections consisted of 10 μl of isotonic saline (pH 7.4).
Guinea pigs were briefly anaesthetised with isoflurane in oxygen and intravitreal injections were made through the pars plana ˜1 mm posterior to the limbus at an angle of approximately 40° to avoid contact with the crystalline lens and retina. Drugs were delivered using a 0.3 ml syringe (Diabetic BD UltraFine II) with a 31 gauge needle. After the injection, antibiotic gel (Conoptal) was applied lightly to the cornea, and animals recovered rapidly in a warm darkened box.
In Experiment 2, three hours after their intravitreal injection, animals were anaesthetised with isoflurane in oxygen and then euthanized with an […] injection of sodium pentobarbitone (160 mg/kg; Lethabarb) into the heart. The eye that had received treatment was then enucleated. […]

[1] = system: guinea pig eyes not form deprived; assay: Intravitreal L-arginine in eyes not form deprived (control groups of Example 2); conditions: 2.2 mM L-arginine vs vehicle, no FD
Description: (§1) Animals were assigned to one of seven treatment groups (Table 1). From seven days of age, five of these groups were form deprived in the right eye for 3 days with a diffuser (two groups wore no diffusers and served as controls for form deprived animals). Six groups of animals were intravitreally injected with either L-arginine or physiological saline once per day, just before lights came on at 10 am. One group wore diffusers, but received no injection as a control. At ten days of age, cycloplegia was induced in all animals and refractive error and ocular components were measured. Two retinas, one a saline control and another that had been injected with the highest dose of L-arginine, were analysed by histochemistry for morphological markers of L-arginine induced toxicity.
To establish the size of the guinea pig vitreous, and thus the molarity of the substrate within the eye, ten vitreous chambers were extracted from ten eyes. The volume of the vitreous was 125 μl. Based on this, three drug doses of L-arginine were employed: low (0.4 mM), medium (2.2 mM) and high (non-toxic: 9.3 mM) (See Table 1). […]
(§2) Cycloplegia was induced as described in Example 1, and refractive error subsequently measured as described in Example 1.
Ocular length and axial components were also determined as described in Example 1. […]

[2] = system: form deprivation myopia in guinea pigs; assay: Intravitreal L-arginine in form deprivation (FD) myopia, 3 days diffuser wear
Protocol: Fifty-seven pigmented guinea pigs (Cavia porcellus) were sourced from the University of Newcastle and housed as described in Example 1. Animals were provided with food and water ad libitum and the room temperature was maintained at 22° C. The University of Newcastle under Australian legislative requirements approved all procedures.
Animals wore classical form diffusers made of translucent moulded Perspex (0.8 mm thickness, 24% transmission) on their right eyes. Diffusers were mounted onto plastic washers backed with Velcro® and attached to mating Velcro® arcs which were affixed above and below the eye.
as §1
To establish the size of the guinea pig vitreous, and thus the molarity of the substrate within the eye, ten vitreous chambers were extracted from ten eyes. The volume of the vitreous was 125 μl. Based on this, three drug doses of L-arginine were employed: low (0.4 mM), medium (2.2 mM) and high (non-toxic: 9.3 mM) (See Table 1). A 30 gauge Hamilton syringe was used to slowly inject into the vitreous through the temporal sclera of right eyes, approximately 2 mm posterior to the limbus. All injections were 10 μl of either physiological saline (0.9%) or L-arginine dissolved in saline (pH 7.4 for all injections).
as §2
Ocular length and axial components were also determined as described in Example 1.
The data presented are means±standard errors of the mean. All figures and statistics are based on the difference between the lens-wearing eye and the fellow non lens-wearing eye and are referred to as relative refractive error and relative ocular distances. Statistical comparisons between lens wearing groups were based on one way ANOVAs followed by Holm-Sidak post hoc tests to account for family-wise error. Correlations were based on Pearson's regression analysis. Statistical analysis used Prism®, Graph Pad Software, Inc. V 6.

N=C(N)NCCC[C@H](N)C(=O)O [L-arginine]
density of NOS displaced amacrine cells (DACs) vs vehicle injected eyes (nNOS; single intravitreal 0.2 mM L-arginine, 3 hours after injection, each eccentricity from the optic nerve, p<0.001): significantly higher density | density of Type I amacrine cells expressing nNOS vs vehicle injected group (nNOS; single intravitreal 0.2 mM L-arginine, 3 hours after injection, p<0.001): significantly higher density | increase of expression of nNOS in the retina (nNOS; single intravitreal injection of L-arginine (0.2 mM)): approximately 20% | difference in relative refractive error between the two groups that were not form deprived ([1]; daily 10 μl intravitreal injection for 3 days, p=0.46): −0.2 D | difference in ocular length between groups not form deprived ([1]; intravitreal, p=0.44): 83 μm | relative refractive error compared with animals that had no form deprivation ([2]; FD 2.2 mM and FD 9.3 mM groups, daily intravitreal injection, 3 days FD): not significantly different from animals that had no form deprivation | ocular length, shortening relative to FD NIL ([2]; FD 9.3 mM (high dose, intravitreal) vs form deprivation only, p<0.001): −484 μm | vitreous chamber depth, difference FD 0 mM vs FD 9.3 mM ([2]; FD + vehicle vs FD + 9.3 mM L-arginine, did not reach significance, p=0.12): 215 μm | choroid thickness, FD 0 mM thinner than FD 9.3 mM ([2]; FD + vehicle vs FD + 9.3 mM L-arginine, not significant, p=0.14): 31 μm | ocular length, FD 0 mM greater than FD 9.3 mM ([2]; FD + vehicle vs FD + high dose L-arginine 9.3 mM intravitreal, p<0.001): 403 μm | vitreous chamber depth, FD NIL longer than FD 9.3 mM ([2]; form deprivation only vs FD + 9.3 mM L-arginine intravitreal, p<0.001): 484 μm | choroid thickness, difference FD NIL vs FD 9.3 mM ([2]; form deprivation only vs FD + 9.3 mM L-arginine intravitreal, p=0.03): −39 μm
